Results taken from patent US20040109832A1, “Di-substituted resorcinols as skin lightening agents” (Unilever Home & Personal Care USA, Division Of Conopco, Inc., priority 2002, published 2004).

System: T1, mushroom tyrosinase
T1 construct: mushroom tyrosinase (Sigma T-7755)
Test: Mushroom Tyrosinase Assay
Assay type: biochemical
Details: for skin lightening effectiveness (tyrosinase inhibition), in words: conclusion from Tables 8 and 9; for Percent of Control: slope ΔAbs 475 nm/min vs ethanol control; for IC50: L-DOPA substrate, absorbency at 475 nm, pH 7.0, read-out: IC50 (skin lightener concentration that results in 50% tyrosinase inhibition relative to the control)
Protocol: Mushroom tyrosinase inhibition is indicative of reduction in melanin synthesis, thereby showing skin lightening effect. […] Following an initial measurement of background absorbency at 475-nm, 20 microliters of mushroom tyrosinase (Sigma T-7755; 6050 units/ml) was added and incubated at room temperature. Absorbency is read at 475-nm over the following time points: 0, 2, 4, and 6.5 minutes. The data is plotted as 475-nm absorbency vs. time (minutes) and the slope of the line is calculated (ΔAbs 475 nm/ min).

[1] = Table 9, Concentration 1 micro M
[2] = Table 9, Concentration 10 micro M
[3] = Table 9, Concentration 50 micro M
[4] = Table 9, Concentration 100 micro M

SMILES | % of Control (Melanin Synthesis) [1] | % of Control (Melanin Synthesis) [2] | % of Control (Melanin Synthesis) [3] | % of Control (Melanin Synthesis) [4] | skin lightening effectiveness (tyrosinase inhibition), in words | Percent of Control (Concentration 0.0156 micro M) | Percent of Control (Concentration 0.0312 micro M) | Percent of Control (Concentration 0.0625 micro M) | Percent of Control (Concentration 0.125 micro M) | Percent of Control (Concentration 0.25 micro M) | Percent of Control (Concentration 0.5 micro M) | Percent of Control (Concentration 1 micro M) | Percent of Control (Concentration 10 micro M) | Percent of Control (Concentration 50 micro M) | Percent of Control (Concentration 100 micro M) | IC50 | skin lightening effectiveness (tyrosinase inhibition), in words (listed as 4,6-di-Isopropyl resorcinols)
Cc1cc(O)cc(O)c1C [4,5-di-Methyl Resorcinol, 4,5-dimethyl resorcinol] | 95 % of Control | 51 % of Control | 35 % of Control | 15 % of Control | not as effective |  |  |  |  |  |  |  |  |  |  |  | 
CC(C)c1cc(C(C)C)c(O)cc1O [4,6-Diisopropyl Resorcinol, 4,6-di-isopropyl resorcinol] | 48 % of Control | 29 % of Control | 34 % of Control | 39 % of Control | comparable to 4-Ethyl Resorcinol | 96.7% of Control | 94.9% of Control | 93.1% of Control | 86.0% of Control | 75.2% of Control | 60.9% of Control | 48.4% of Control | 28.7% of Control | 34.0% of Control | 39.4% of Control | 750 nM | effective skin lightening compounds

Second part, the compound after the results:

% of Control (Melanin Synthesis) [1] | % of Control (Melanin Synthesis) [2] | % of Control (Melanin Synthesis) [3] | % of Control (Melanin Synthesis) [4] | skin lightening effectiveness (tyrosinase inhibition), in words | Percent of Control (Concentration 0.0156 micro M) | Percent of Control (Concentration 0.0312 micro M) | Percent of Control (Concentration 0.0625 micro M) | Percent of Control (Concentration 0.125 micro M) | Percent of Control (Concentration 0.25 micro M) | Percent of Control (Concentration 0.5 micro M) | Percent of Control (Concentration 1 micro M) | Percent of Control (Concentration 10 micro M) | Percent of Control (Concentration 50 micro M) | Percent of Control (Concentration 100 micro M) | IC50 | skin lightening effectiveness (tyrosinase inhibition), in words (listed as 4,6-di-Isopropyl resorcinols) | SMILES
32 % of Control | 25 % of Control | 21 % of Control | 18 % of Control |  | 86% of Control | 82% of Control | 72% of Control | 64% of Control | 57% of Control | 43% of Control | 32% of Control | 25% of Control | 21% of Control | 18% of Control | 350 nM |  | CCc1ccc(O)cc1O [4-Ethyl Resorcinol, 4-ethyl resorcinol]
27 % of Control | 29 % of Control | 29 % of Control | 30 % of Control | effective skin lightening compounds | 80.6% of Control | 60.9% of Control | 46.6% of Control | 35.8% of Control | 30.4% of Control | 28.7% of Control | 26.9% of Control | 28.7% of Control | 28.7% of Control | 30.4% of Control | ~50 nM |  | CC(C)c1ccc(O)cc1O [4-Isopropyl Resorcinol, 4-isopropyl resorcinol]
98 % of Control | 98 % of Control | 100 % of Control | 100 % of Control | no activity |  |  |  |  |  |  |  |  |  |  |  |  | Oc1cccc(O)c1 [Resorcinol, resorcinol]
